Values after ≈ are worked out from the molar mass of the structure shown.
How the values were obtained:
A549 = assay: Cytotoxicity against human A549 cells; type: functional, cell-based
Acetylcholinesterase = Acetylcholinesterase (Homo sapiens, UniProt P22303); assay: Inhibition of AChE
[1] = biological target: T1, Tyrosine-protein phosphatase non-receptor type 1 (Homo sapiens, UniProt P18031); assay: Inhibition of PTP1B
T1 sequence (P18031 whole entry): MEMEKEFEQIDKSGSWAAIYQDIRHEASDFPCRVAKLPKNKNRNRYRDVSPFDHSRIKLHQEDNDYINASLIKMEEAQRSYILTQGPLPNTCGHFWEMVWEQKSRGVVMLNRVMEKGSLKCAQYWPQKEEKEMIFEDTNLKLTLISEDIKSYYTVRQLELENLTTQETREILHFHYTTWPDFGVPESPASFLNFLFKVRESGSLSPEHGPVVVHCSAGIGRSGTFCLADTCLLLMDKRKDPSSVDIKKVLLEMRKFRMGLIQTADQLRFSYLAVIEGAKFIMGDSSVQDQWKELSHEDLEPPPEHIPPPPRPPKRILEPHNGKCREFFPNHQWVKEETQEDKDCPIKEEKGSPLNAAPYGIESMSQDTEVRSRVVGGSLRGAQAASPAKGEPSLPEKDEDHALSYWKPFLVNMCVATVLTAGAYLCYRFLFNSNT

Bel-7402 = assay: Cytotoxicity against human Bel-7402 cells; type: functional, cell-based
HeLa = assay: Cytotoxicity against human HeLa cells; type: functional, cell-based
HL-60 = assay: Cytotoxicity against human HL-60 cells; type: functional, cell-based
[2] = biological target: T2, Prostaglandin G/H synthase 2 (Homo sapiens, UniProt P35354); assay: Inhibition of COX2
T2 sequence (P35354 whole entry): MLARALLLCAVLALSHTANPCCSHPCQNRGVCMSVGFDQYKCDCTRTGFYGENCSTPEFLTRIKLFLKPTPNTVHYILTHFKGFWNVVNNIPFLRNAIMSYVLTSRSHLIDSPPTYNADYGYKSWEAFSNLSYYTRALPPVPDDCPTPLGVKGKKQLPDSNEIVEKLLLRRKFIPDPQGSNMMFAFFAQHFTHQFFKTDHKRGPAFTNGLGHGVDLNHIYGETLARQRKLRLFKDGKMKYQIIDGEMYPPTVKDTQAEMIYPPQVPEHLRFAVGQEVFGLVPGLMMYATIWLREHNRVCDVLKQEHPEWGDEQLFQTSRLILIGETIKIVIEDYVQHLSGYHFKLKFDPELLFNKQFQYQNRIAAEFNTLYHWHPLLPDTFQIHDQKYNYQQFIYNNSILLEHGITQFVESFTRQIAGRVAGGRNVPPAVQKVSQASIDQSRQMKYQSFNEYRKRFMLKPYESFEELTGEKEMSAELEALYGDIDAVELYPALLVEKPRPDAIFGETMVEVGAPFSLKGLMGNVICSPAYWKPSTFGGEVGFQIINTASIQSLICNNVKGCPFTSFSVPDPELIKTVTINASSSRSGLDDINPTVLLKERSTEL

Sequence of Acetylcholinesterase (P22303 whole entry): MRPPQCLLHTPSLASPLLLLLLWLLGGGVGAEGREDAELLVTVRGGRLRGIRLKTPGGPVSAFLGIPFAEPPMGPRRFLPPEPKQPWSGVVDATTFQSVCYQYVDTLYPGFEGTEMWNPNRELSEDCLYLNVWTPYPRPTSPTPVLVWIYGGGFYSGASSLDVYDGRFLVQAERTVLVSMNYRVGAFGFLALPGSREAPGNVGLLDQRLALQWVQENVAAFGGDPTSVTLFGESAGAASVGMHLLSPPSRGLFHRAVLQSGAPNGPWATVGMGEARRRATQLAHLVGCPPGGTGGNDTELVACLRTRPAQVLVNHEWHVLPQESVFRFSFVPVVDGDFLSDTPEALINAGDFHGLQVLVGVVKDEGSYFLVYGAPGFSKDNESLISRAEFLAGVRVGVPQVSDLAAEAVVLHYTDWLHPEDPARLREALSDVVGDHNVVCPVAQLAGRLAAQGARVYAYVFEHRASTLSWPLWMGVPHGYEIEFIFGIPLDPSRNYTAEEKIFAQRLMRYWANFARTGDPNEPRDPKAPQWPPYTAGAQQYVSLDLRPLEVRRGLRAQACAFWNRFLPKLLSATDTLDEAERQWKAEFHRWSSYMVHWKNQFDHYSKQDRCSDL

## C=C(CC[C@@H](C)[C@H]1CC[C@H]2[C@@H]3CC=C4C(=O)[C@](O)(C(=O)OCC)C[C@]4(C)[C@H]3CC[C@]12C)C(C)C
A549
  IC50: 0.47 µg/mL (≈ 0.999 µM)
Acetylcholinesterase
  IC50: > 21.2 µM
[1]
  IC50: > 21.2 µM
Bel-7402
  IC50: 0.73 µg/mL (≈ 1.55 µM)
HeLa
  IC50: > 10 µg/mL
HL-60
  IC50: 0.32 µg/mL (≈ 0.68 µM)
[2]
  IC50: > 21.2 µM
